The subject of series [1] is LRP6. In words: Wnt reporter assay in HEK293 cells after LRP6 siRNA knockdown. Format: cell-based, human. As to conditions: CI-994 16 μM, 1011, 1015, 1023 1 μM, 24 h. How it is done:
(A) structures of niciosamide and CI-994; (B) HEK293 cells were transfected with Super8XTOPFlash and β galactosidase vectors along with Wnt3A or control vector. After 24 hours incubation, cells were treated with CI-994 at the indicated concentration for 24 hr. The luciferase activity was then measured and normalized to the activity of the β-galactosidase. (C) HT1080 cells stably transduced LRP6 with HA tag were treated with niciosamide and CI-994 at the indicated concentrations for 24 h. The levels of HA-LRP6 were examined by Western blot with anti-HA antibody. (D) Western blots showing the depletion of LRP6 after 2 days of transiently transfection of 50 nM LRP6 siRNA in HEK293 cells. ON-TARGETplus double-stranded siRNA oligomers against human LRP6 and non-specific scrambled siRNA control (Stealth RNAi™ siRNA Negative Control, Med GC) were purchased from Thermo Scientific. siRNA LRP6-1, siRNA LRP6-2 and control siRNA were Thermo Scientific catalog numbers J-003845-09, J-003845-11 and 12935300, respectively. (E) HEK293 cells were transfected with LRP6 siRNAs, and after 8 h incubation were further transfected with Super8XTOPFlash construct and β galactosidase-expressing vector. After 24 h incubation, the cells were treated with CI-994 (16 μM) for 24 h. The luciferase activity was then measured and normalized to β-galactosidase activity. All the values are the average of triplicate determinations with the SD values indicated by error bars. **P<0.01 versus corresponding control value.
(A) HT1080 cells stably transduced with human LRP6 with HA tag were treated with niciosamide (1 μM) and other compounds as noted (1 μM) for 24 hr. The levels of HA-LRP6 were examined by Western blots with anti-HA antibody. All samples were also probed with anti-actin antibody to verify equal loading. This experiment is a representative of two such experiments performed with similar data. (B) N2a cells were treated with 1015 and 1011 at the indicated concentrations for 24 h. The expression levels of LRP6, β-catenin and actin were examined by Western blotting. This experiment is a representative of three such experiments performed with similar data. (C) HEK293 cells were transfected with LRP6 siRNAs, and after 8 h incubation were further transfected with Super8XTOPFlash construct and β galactosidase-expressing vector. ON-TARGETplus double-stranded siRNA oligomers against human LRP6 and non-specific scrambled siRNA control (Stealth RNAi™ siRNA Negative Control, Med GC) were purchased from Thermo Scientific. siRNA LRP6-1, siRNA LRP6-2 and control siRNA were Thermo Scientific catalog numbers J-003845-09, J-003845-11 and 12935300, respectively. […] The luciferase activity was then measured and normalized to β-galactosidase activity. […]

The test system of series [2] is BACE1. In words: BACE1 expression in N2a cells by Western blotting. It is filed as cell-based. The conditions noted are these: 24 h. As for the experimental part:
(A,C) N2a cells were treated with CI-994 at the indicated concentration for 24 h, and the levels of β-catenin (A) and BACE1 (C) were examined by Western blotting. (B,D) The band intensity of β-catenin and BACE1 was quantified and normalized to the corresponding signal for actin. The results represented in the histograms are shown as the mean±SD and are the average of three independent experiments. *P<0.05, **P<0.01 versus corresponding control value.
N2a cells were treated with 1015 and 1020 at the indicated concentrations for 24 h. (A) the levels of BACE1 expression were examined by Western blotting. (B) The intensity of BACE1 bands were quantified and normalized to the corresponding signal for actin. The results represented in the histograms are shown as the mean±SD and are the average of 3-4 independent experiments. *P<0.05, **P<0.01 versus corresponding control value.
Western blotting: Cells in 6-well plates were lysed in 0.5 ml of lysis buffer (phosphate-buffered saline containing 1% Triton X-100, 1× Proteinase inhibitor cocktail Complete, and 1 mM PMSF) at 4° C. for 15 min. Equal quantities of protein were subjected to SDS-PAGE under reducing conditions. Following transfer to immobilon-P transfer membrane, successive incubations with a primary antibody, and a horseradish peroxidase-conjugated secondary antibody or IRDye® 680RD goat anti-rabbit/mouse secondary antibodies were carried out for 60-120 min at room temperature. The immunoreactive proteins were then detected using the ECL system or the Odyssey infrared imaging system (LI-COR). Films showing immunoreactive bands were scanned by Hp Scanjet 5590.

The test system of series [3] is HDAC. In words: Histone Deacetylase (HDAC) activity assay (fluorometric kit). It is filed as biochemical. As to conditions: 2 μM. How it is done: HDAC enzymatic activities of compounds were measured by fluorometric HDAC Activity Assay kit (Abcam. #ab156064). Trichostatin A, a known HDAC inhibitor, was used as the positive control. All the values are the average of triple determination with the s.d. indicated by error bars. **P<0.01 versus the corresponding control value.
Histone Deacetylase (HDAC) activity assay: Histone Deacetylase (HDAC) activity assay kit (ab156064) was purchased from Abcam, and the effects of the tested compounds on HDAC activity were examined according to the manufacturers specifications.

Series [4] can be described thus: Aqueous (kinetic) solubility assay in PBS pH 7.4. It is filed as physicochemical. The conditions noted are these: phosphate-buffered saline, 25 °C, pH 7.4, aqueous buffer, kinetic from dmso stock, PBS pH 7.4, 2% DMSO, two hours, assay range 2-200 μM. How it is done: Aqueous solubility assay: Using a 10 mM stock solution of the compound in 100% DMSO, dilutions were prepared to a theoretical concentration of 200 μM in duplicates in phosphate-buffered saline pH 7.4 with 2% final DMSO. In parallel, compound dilutions in 50% acetonitrile/PBS were prepared to theoretical concentrations of 0 μM (blank), 50 μM, 100 μM and 200 μM with 2% final DMSO to generate calibration curves. The experimental compound dilutions in PBS were further allowed to equilibrate at 25° C. on a thermostatic orbital shaker for two hours and then centrifuged at 14000 rpm, 5 min and filtered through HTS filter plates using a vacuum manifold. The supernatants of test compounds were diluted 2-fold with acetonitrile contained 4% DMSO before measuring. Ondansetron was used as reference compound to control proper assay performance. 200 μl of samples were transferred to 96-well plate and measured in 200-550 nm range with 5 nm step. The effective range of this assay is approximately 2-200 μM and the compounds returning values close to the upper limit of the range may have higher actual solubility (e.g. 5 ? deoxy-5-fluorouddine).

The mark [5] stands for this setting: read-out: PBS solubility, pH 7.4, μM Exp1.
Setting [6] is: read-out: PBS solubility, pH 7.4, μM Exp2.
Where [7] appears, read: read-out: PBS solubility, pH 7.4, μM Mean.

Converted amounts (≈) assume the structure as drawn. Read-outs that look alike come from different tables or passages of the source.

Consider `CC(=O)Nc1ccc(C(=O)Nc2ccccc2N)cc1` [CI-994, 4-(acetylamino)-N-(2-aminophenyl)benzamide, reference compound], for which the “effect of knockdown of LRP6 expression on the compound's effect on Wnt/β-catenin signaling” value (from here on “effect of knockdown of LRP6 expression”) in series [1] is on record as “significantly attenuated”. For the same molecule, the BACE1 expression entry in series [2] (CI-994 at the indicated concentration) is listed as “deceased”.
On to `CC1CCCC(C)N1CCNC(=O)c1ccc(C(=O)Nc2ccccc2N)nc1` (stereo not drawn) [Compound 1011], for which the “effect of knockdown of LRP6 expression” value in series [1] is “significantly attenuated”. In addition, in series [3], the “inhibitory effects on HDAC activity” value was “do not display any inhibitory effects”. For the same molecule, the solubility at 2 h is 207 µM (≈ 81.9 µg/mL) in series [4] (setting [5]), 207 µM (≈ 81.9 µg/mL) in series [4] (setting [6]) and not below 200 µM in series [4] (setting [7]).
For `Nc1ccccc1NC(=O)c1ccc(C(=O)NCC2CCN2C2CCCC2)cn1` (stereo not drawn) [Compound 1015], the “effect of knockdown of LRP6 expression” value in series [1] is “significantly attenuated”. Besides, the “inhibitory effects on HDAC activity” value in series [3] is “do not display any inhibitory effects”. In addition, the solubility at 2 h in series [4] (setting [5]) is 210 µM (≈ 82.6 µg/mL); in series [4] (setting [6]) it was 211 µM (≈ 83 µg/mL); in series [4] (setting [7]), not below 200 µM. Further, the BACE1 expression result in series [2] (0.8 μM and 1.6 μM) was “significantly inhibited”.
Take `Nc1ccccc1NC(=O)c1ccc(C(=O)NCCN2CCC3(CCCCC3)CC2)cc1` [Compound 1020]: the “inhibitory effects on HDAC activity” value in series [3] is “do not display any inhibitory effects”. In addition, the solubility at 2 h is 200 µM (≈ 86.9 µg/mL) in series [4] (setting [5]), 205 µM (≈ 89.1 µg/mL) in series [4] (setting [6]) and not below 200 µM in series [4] (setting [7]). For the same molecule, the BACE1 expression entry in series [2] (0.8 μM and 1.6 μM) is given as “significantly inhibited”.
